# Data as given in US12144299B2, “Mobilisation of transposable elements to enhance genetic and epigenetic variability in a population” (priority 2015, dated 2024).
# Entries after “also recorded” stand apart in the source; their conditions may differ.
# Experiments:
# [1] = test system: LINE-1 retrotransposon; test: LINE-1 DNA methylation assay in A549 cells; assay type: cell-based, human; settings: A 0.5 μg/ml, Z 350 μM
# Description: (§1) For the A549 human cancer cell line cells were grown in medium without treatment or supplemented with either Z (350 μM) or A (0.5 μg/ml), DNA was extracted by using the QiaAmp DNA mini Kit (Qiagen, France). Next, global DNA methylation was estimated by quantifying the presence of 5-methylcytosine 5-mC DNA ELISA Kit (Zymo Research) according to the manufacturers's instructions. DNA methylation at the LINE-1 transposons were assessed with the Global DNA Methylation Assay—LINE-1 kit (Active Motif).
# [2] = test system: ONSEN LTR; test: DNA methylation analysis (DdeI chop PCR, bisulfite sequencing) at the ONSEN LTR; assay type: in vivo, Arabidopsis thaliana
# Description: 20 ng of total genomic DNA isolated from Arabidopsis seedlings was digested with the methylation sensitive restriction enzyme, Dde1 (NEB) at 37° C. over night. Following heat inactivation at 60° C. for 20 min, the digested DNA was used as a template for the chopPCR. Actin2 served as a control for the digest. Undigested DNA was used as a loading control. PCR products were separated on a 1% agarose gel and stained with Midori Green.
# [3] = test system: ONSEN retrotransposon; test: ONSEN extrachromosomal DNA accumulation by qPCR in seedlings after heat stress; assay type: in vivo, Arabidopsis thaliana; settings: HS
# Description: After stratification for two days at 4° C., Arabidopsis thaliana plants (accession Col-0) were grown on sterile ½ MS medium with 1% sucrose and a pH of 5.8 (control medium) under long day conditions (16 h light) at 24° C. (day) and 22° C. (night), respectively. Oryza sativa plants were grown on sterile ½ MS medium with 1% sucrose and a pH of 5.8 (control medium) 16 h at 28° C. (day) and 27° C. (night), respectively.
# The induction of epigenetic changes and the activation and stable integration of transposable elements in Arabidopsis seedlings was enhanced by germinating and growing them on ½ MS-medium that contained zebularine (final concentration: 10-40 μM), α-amanitin (final concentration: 0.005-20 μg/ml) or a combination of both chemicals (inductive media).
# In order to trigger the transposition of the heat-responsive retrotransposon ONSEN, seven days old seedlings were exposed to a cold shock for 24 h at 6° C. followed by a heat-stress for 24 h at 37° C. (heat stress, HS) under controlled conditions in a growth chamber (Sanyo). Control plants were transferred back to longday-conditions 24° C. (day) and 22° C. (night) after the cold treatment at 6° C. for 24 h (CS, control stress, according to Ito et al., 2011).
# Total DNA from seedlings and adult plants was isolated using a DNeasy Plant Mini Kit (QIAGEN).
# In preparation to the measurement of extrachromosomal DNA copies of ONSEN in CS/HS and untreated/treated seedlings, roots were dissected directly after the heat stress and plants were immediately frozen in liquid nitrogen until DNA extraction.
# The copy numbers of ONSEN were determined with qPCRs on total DNA using a TaqMan master mix (Life Technologies) in a final volume of 10 μl in the Light-Cycler 480 (Roche). ACTOPIA17 copy number was measured by quantitative PCR (qPCR) in a Light-Cycler 480 (Roche), using […] Master Mix. Actin2 (At3g18780) served as a standard gene for normalization.
# [4] = test system: A549 human cancer cell line; test: Global DNA methylation (5-mC DNA ELISA) in A549 cells; assay type: cell-based; settings: A 0.5 μg/ml, Z 350 μM
# Description: as §1
Structure (SMILES),reduction of DNA methylation at LINE-1 [1],"DNA methylation at the ONSEN LTR at higher A concentration ([2]; WT (Col) seedlings, A 20 μg/ml, Z 10 μM)","CHH methylation at the ONSEN LTR ([2]; after CS, A 5 μg/ml, Z 40 μM)","ONSEN copy number at different α-amanitin concentrations ([3]; Col wildtype seedlings, α-amanitin in different concentrations in μg/ml)",ONSEN ecDNA accumulation in dcl2/3/4 triple mutant ([3]; dcl2/3/4 triple-mutant grown on A),ONSEN ecDNA accumulation in rdr6 mutant ([3]; rdr6 plants grown on A),"ONSEN ecDNA accumulation after heat stress ([3]; wild-type seedlings, A 5 μg/ml, Z 40 μM)",reduction of global DNA methylation [4]
"CC[C@H](C)[C@@H]1NC(=O)CNC(=O)[C@@H]2Cc3c([nH]c4cc(O)ccc34)[S+]([O-])C[C@@H](NC(=O)CNC1=O)C(=O)N[C@@H](CC(N)=O)C(=O)N1C[C@H](O)C[C@H]1C(=O)N[C@@H]([C@@H](C)[C@@H](O)CO)C(=O)N2 (stereo partly drawn) [A, alpha-amanitin]",40%,reduction in DNA-methylation; also recorded: strongly reduced DNA methylation,reduced CHH methylation levels,dose dependent accumulation,no effect,still enhancing ecDNA accumulation,increase in ONSEN ecDNA,40%
"O=c1ncccn1[C@@H]1O[C@H](CO)[C@@H](O)[C@H]1O [Z, zebularine]",20%,,,,,,,
